In brackets after ≈: the same amount, converted by molar mass.
Legend:
Kocuria rhizophila = assay: Antimicrobial activity against Kocuria rhizophila ATCC9341 assessed as inhibition of bacterial growth incubated for 48 hrs by liquid microculture method; assay type: functional
P388 = assay: Cytotoxicity against mouse P388 cells assessed as cell growth inhibition measured after 48 hrs by MTT assay; assay type: functional, cell-based; conditions: P388, 48 h
Escherichia coli = assay: Antimicrobial activity against Escherichia coli NIHJ JC-2 assessed as inhibition of bacterial growth incubated for 48 hrs by liquid microculture method; assay type: functional
[1] = tested on: Agrobacterium tumefaciens; assay: Antimicrobial activity against Rhizobium radiobacter NBRC14554 assessed as inhibition of bacterial growth incubated for 48 hrs by liquid microculture method; assay type: functional
Candida albicans = assay: Antimicrobial activity against Candida albicans NBRC0197 assessed as inhibition of […] growth incubated for 48 hrs by liquid microculture method; assay type: functional
[2] = tested on: Colletotrichum gloeosporioides; assay: Antimicrobial activity against Glomerella cingulata NBRC5907 assessed as inhibition of […] growth incubated for 48 hrs by liquid microculture method; assay type: functional
Staphylococcus aureus = assay: Antimicrobial activity against Staphylococcus aureus FDA209P JC-1 assessed as inhibition of bacterial growth incubated for 48 hrs by liquid microculture method; assay type: functional
Trichophyton rubrum = assay: Antimicrobial activity against Trichophyton rubrum NBRC5467 assessed as inhibition of […] growth incubated for 48 hrs by liquid microculture method; assay type: functional

Structure (SMILES) | MIC (Kocuria rhizophila) [µg/mL] | MIC (Escherichia coli) [µg/mL] | MIC [1] [µg/mL] | MIC (Candida albicans) [µg/mL] | MIC [2] [µg/mL] | MIC (Staphylococcus aureus) [µg/mL] | MIC (Trichophyton rubrum) [µg/mL] | IC50 (P388) [µM]
C/C=C/c1ccccc1C/C=C/C=C\CC(=O)O | 13 (≈ 53.6 µM) | > 100 | 25 (≈ 103 µM) | > 100 | 6.3 (≈ 26 µM) | 6.3 (≈ 26 µM) | 13 (≈ 53.6 µM) | 1.2
C/C=C/c1ccccc1/C=C/C=C/C(O)Cc1cc(=O)c2ccccc2[nH]1 (racemic) | 6.3 (≈ 17.6 µM) | > 100 | 50 (≈ 140 µM) | > 100 | 13 (≈ 36.4 µM) | 13 (≈ 36.4 µM) | 6.3 (≈ 17.6 µM) | 7.3
COc1cccc2c1C(=O)c1c(O)c3c(c(O)c1C2=O)C[C@@](O)(C(=O)CO)C[C@@H]3O[C@H]1C[C@H](N)[C@H](O)[C@H](C)O1 [DOXORUBICIN] | – | – | – | – | – | – | – | 0.08

Now from value to compound, other results behind:

MIC (Kocuria rhizophila) [µg/mL] | MIC (Escherichia coli) [µg/mL] | MIC [1] [µg/mL] | MIC (Candida albicans) [µg/mL] | MIC [2] [µg/mL] | MIC (Staphylococcus aureus) [µg/mL] | MIC (Trichophyton rubrum) [µg/mL] | Structure (SMILES) | IC50 (P388) [µM]
13 (≈ 38.1 µM) | > 100 | 50 (≈ 146 µM) | > 100 | 25 (≈ 73.2 µM) | 25 (≈ 73.2 µM) | 13 (≈ 38.1 µM) | C/C=C/c1ccccc1C/C=C/C=C\Cc1cc(=O)c2ccccc2[nH]1 | 10
– | – | – | 0.78 (≈ 0.844 µM) | 1.3 (≈ 1.41 µM) | – | 0.78 (≈ 0.844 µM) | C[C@@H]1[C@H](O)[C@@H](C)/C=C/C=C/C=C/C=C/C=C/C=C/C=C/[C@H](O[C@@H]2O[C@H](C)[C@@H](O)[C@H](N)[C@@H]2O)C[C@@H]2O[C@](O)(C[C@@H](O)C[C@@H](O)[C@H](O)CC[C@@H](O)C[C@@H](O)CC(=O)O[C@H]1C)C[C@H](O)[C@H]2C(=O)O [AMPHOTERICIN B] | –

From ChEMBL document CHEMBL5120918, “Marinoquinolones and Marinobactoic Acid: Antimicrobial and Cytotoxic ortho-Dialkylbenzene-Class Metabolites Produced by a Marine Obligate Gammaproteobacterium of the Genus Marinobacterium” (J Nat Prod, 2022)
